# From patent US8455448B2, “Myostatin isoform” (Myostin Therapeutics Pty Ltd, priority 2004, dated 2013)
# Tests used:
# [1] = tested on: myostatin mRNA expression; experiment: Myostatin mRNA expression in C2C12 murine myoblasts (real-time PCR); assay type: cell-based; conditions: 10 μg/ml, FIG. 14
# Method: C2C12 myoblasts were seeded in 10 cm diameter tissue culture plates (Nunc, Roskilde, Denmark) at a cell density of 3000 cells per cm^2 in 10 ml of Dulbecco's modified Eagle's medium (DMEM, Invitrogen, California) supplemented with foetal bovine serum (FBS, 10% v/v, Invitrogen), penicillin (1×10^5 IU/I, Sigma, St Louis, Mo., USA) and streptomycin (100 mg/l, Sigma) buffered with NaHCO3 containing phenol red (7.22 nmol/l) as a pH indicator, and incubated overnight at 37° C. with 5% CO2. For a set of eight plates (chronic treatment, designated “A”) the medium was replaced with the test medium: DMEM with 2.5% FBS supplemented with 0 or 10 μg/ml oMSV47 (n=4). The plates “A” were then incubated at 37° C. with 5% CO2 for 48 hours. […] RNA was re-suspended in diethyl pyrocarbonate-treated water and the total RNA concentration determined by measuring absorbance at 260 nm (Nanodrop Spectrophotometer, Delaware, USA). […] The following experimental run protocol was used: denaturation (95° C. for 5 min), amplification (95° C. for 5 sec, 62° C. for 10 sec, 72° C. for 20 sec, with a single fluorescence measurement, 50 cycles), melt curve (60-95° C. with a heating rate of 0.1° C. per sec with continuous fluorescence measurement) on a LightCycler 2.0 PCR machine (Roche Diagnostics). Arbitrary concentrations were calculated by the Lightcycler software using a standard curve (Roche Diagnostics).
# [2] = tested on: p21; experiment: p21 protein in proliferating C2C12 myoblasts (Western blot); assay type: cell-based, murine; conditions: 0.1, 1, 10 μg/ml, 48 h, FIG. 6
# Method: Thus, a decrease in p21 protein expression may indicate an increased cell proliferation rate. PCNA is a positive marker of cell proliferation. It is a subunit of DNA polymerase-delta during DNA replication in the cell cycle. Higher level of PCNA protein expression is associated with higher number of cells entering the DNA replication phase of the cell cycle.
# C2C12 myoblasts were seeded in 10 cm diameter tissue culture plates (Nunc, Roskilde, Denmark) at a cell density of 3000 cells per cm^2 in 10 ml of Dulbecco's modified Eagle's medium (DMEM, Invitrogen, California) supplemented with foetal bovine serum (FBS, 10% v/v, Invitrogen), penicillin (1×105 IU/l, Sigma, St Louis, Mo., USA) and streptomycin (100 mg/l, Sigma) buffered with NaHCO3 containing phenol red (7.22 nmol/l) as a pH indicator, and incubated overnight at 37° C. with 5% CO2. The medium was replaced with the test medium: DMEM with 10% FBS supplemented with, 0.1, 1 or 10 μg/ml oMSV65 (n=3). The plates were then incubated at 37° C. with 5% CO2 for 48 hours. Cells were removed from the plate by trypsin treatment, washed with phosphate buffered saline (PBS, Oxoid, UK) and resuspended in 100 μl of lysis buffer (10 mM Hepes pH 7.9, 1.5 mM MgCl2, 10 mM KCl, 0.5% NP40, one Complete protease inhibitor tablet [Roche Diagnostics, USA] per 50 ml buffer). […] Band intensities were measured with a GS800 densitometer (BioRad, USA).
Molecule,"expression of myostatin (real-time PCR) ([1]; acutely, 6 h from 48 to 54 h)","expression of myostatin (real-time PCR) ([1]; chronically, from seeding to 48 h)",p21 protein levels in proliferating C2C12 myoblasts [2]
"roMSV47: 47 amino acid C-terminal mature ovine MSV fragment (SEQ ID NO: 50), recombinant from E. coli (IIFLEVYIQFCSILGEAVFKRQSKSIHFCQNFKIIACLCNTAAFRMK; Ovis aries)",suppresses the expression of myostatin,suppresses the expression of myostatin,–
"roMSV65: 65 amino acid C-terminal peptide of ovine MSV (SEQ ID NO: 49) expressed as recombinant protein in E. coli (protein, Ovis aries) VHFYTPPYGQWIFHKERKIIFLEVYIQFCSILGEAVFKRQSKSIHFCQNFKIIACLCNTAAFRMK",–,–,dose-dependently decreases p21 protein levels
